{"source": "patent US12466839B2", "about": "“Allosteric AKT inhibitors for use in the treatment of Hereditary Hemorrhagic Telangiectasia” (VADERIS THERAPEUTICS AG, priority 2020, dated 2025)", "key": {"ETA": {"biological_target": "T1, ETA (Homo sapiens, UniProt P25101)", "T1 construct": "purchased Millipore", "T1 sequence (P25101 21-427)": "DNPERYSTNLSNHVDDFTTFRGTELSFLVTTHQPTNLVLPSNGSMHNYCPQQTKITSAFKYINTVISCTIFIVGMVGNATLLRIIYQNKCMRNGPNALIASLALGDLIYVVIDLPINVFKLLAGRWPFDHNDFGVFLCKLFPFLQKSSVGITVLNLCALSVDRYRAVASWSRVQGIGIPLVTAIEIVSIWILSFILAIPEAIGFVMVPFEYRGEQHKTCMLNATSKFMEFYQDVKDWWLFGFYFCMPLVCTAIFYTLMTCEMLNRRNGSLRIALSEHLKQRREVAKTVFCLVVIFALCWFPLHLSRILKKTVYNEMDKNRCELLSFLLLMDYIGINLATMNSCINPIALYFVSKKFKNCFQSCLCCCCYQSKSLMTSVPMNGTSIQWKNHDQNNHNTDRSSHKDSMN", "assay": "Millipore Drug Discovery Safety and Liability Panel", "assay_type": "cell-based"}, "NK1": {"biological_target": "T2, NK1 (Homo sapiens, UniProt P25103)", "T2 construct": "purchased Millipore", "assay": "Millipore Drug Discovery Safety and Liability Panel", "assay_type": "cell-based"}, "H2": {"biological_target": "T3, H2 (Homo sapiens, UniProt P25021)", "T3 construct": "purchased Millipore", "T3 sequence (P25021 whole entry)": "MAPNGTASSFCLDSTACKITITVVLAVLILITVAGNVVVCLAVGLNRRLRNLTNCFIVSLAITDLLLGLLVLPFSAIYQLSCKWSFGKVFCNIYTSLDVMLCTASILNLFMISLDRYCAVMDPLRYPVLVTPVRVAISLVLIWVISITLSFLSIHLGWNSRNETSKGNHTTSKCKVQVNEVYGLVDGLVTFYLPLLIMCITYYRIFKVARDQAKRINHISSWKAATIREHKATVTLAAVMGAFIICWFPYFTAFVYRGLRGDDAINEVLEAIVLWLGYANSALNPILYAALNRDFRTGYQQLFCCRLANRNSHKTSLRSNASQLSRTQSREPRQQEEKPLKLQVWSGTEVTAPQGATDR", "assay": "Millipore Drug Discovery Safety and Liability Panel", "assay_type": "cell-based"}, "PTH1": {"biological_target": "T4, PTH1 (Homo sapiens, UniProt Q03431)", "T4 construct": "Millipore", "assay": "Millipore Drug Discovery Safety and Liability Panel", "assay_type": "cell-based"}, "M1": {"biological_target": "T5, M1 (Homo sapiens, UniProt P11229)", "T5 construct": "purchased Millipore", "T5 sequence (P11229 whole entry)": "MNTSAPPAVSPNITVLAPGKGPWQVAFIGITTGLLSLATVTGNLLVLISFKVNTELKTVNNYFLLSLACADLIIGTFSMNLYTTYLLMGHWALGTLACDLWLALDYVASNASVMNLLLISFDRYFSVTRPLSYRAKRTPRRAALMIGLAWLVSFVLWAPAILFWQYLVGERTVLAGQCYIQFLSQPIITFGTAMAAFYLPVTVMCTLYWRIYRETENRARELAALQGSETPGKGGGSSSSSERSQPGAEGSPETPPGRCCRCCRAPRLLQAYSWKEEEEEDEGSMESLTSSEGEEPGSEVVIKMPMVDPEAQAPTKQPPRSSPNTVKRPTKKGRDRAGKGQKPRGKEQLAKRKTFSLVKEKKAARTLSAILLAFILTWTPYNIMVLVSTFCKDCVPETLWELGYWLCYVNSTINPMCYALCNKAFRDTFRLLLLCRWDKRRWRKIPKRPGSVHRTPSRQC", "assay": "Millipore Drug Discovery Safety and Liability Panel", "assay_type": "cell-based"}, "PDK1": {"biological_target": "PDK1 (Homo sapiens, UniProt O15530)", "assay": "Panel of 450 kinases and 10-point titration curve", "assay_type": "biochemical"}, "SST4": {"biological_target": "T6, SST4 (Homo sapiens, UniProt P31391)", "T6 construct": "Millipore", "T6 sequence (P31391 whole entry, species assumed)": "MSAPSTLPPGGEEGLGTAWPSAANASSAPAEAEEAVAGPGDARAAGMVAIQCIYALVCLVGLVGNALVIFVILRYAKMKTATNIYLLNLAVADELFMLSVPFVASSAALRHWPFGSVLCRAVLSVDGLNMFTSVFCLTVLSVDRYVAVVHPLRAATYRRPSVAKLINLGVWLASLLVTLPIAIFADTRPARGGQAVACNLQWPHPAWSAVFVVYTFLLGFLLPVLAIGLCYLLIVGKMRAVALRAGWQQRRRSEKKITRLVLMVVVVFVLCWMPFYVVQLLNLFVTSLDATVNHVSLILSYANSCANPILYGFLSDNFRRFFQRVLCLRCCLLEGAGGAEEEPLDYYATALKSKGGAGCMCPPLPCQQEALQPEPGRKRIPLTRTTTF", "assay": "Millipore Drug Discovery Safety and Liability Panel", "assay_type": "cell-based"}, "H3": {"biological_target": "T7, H3 (Homo sapiens, UniProt Q9Y5N1)", "T7 construct": "purchased Millipore", "T7 sequence (Q9Y5N1 whole entry)": "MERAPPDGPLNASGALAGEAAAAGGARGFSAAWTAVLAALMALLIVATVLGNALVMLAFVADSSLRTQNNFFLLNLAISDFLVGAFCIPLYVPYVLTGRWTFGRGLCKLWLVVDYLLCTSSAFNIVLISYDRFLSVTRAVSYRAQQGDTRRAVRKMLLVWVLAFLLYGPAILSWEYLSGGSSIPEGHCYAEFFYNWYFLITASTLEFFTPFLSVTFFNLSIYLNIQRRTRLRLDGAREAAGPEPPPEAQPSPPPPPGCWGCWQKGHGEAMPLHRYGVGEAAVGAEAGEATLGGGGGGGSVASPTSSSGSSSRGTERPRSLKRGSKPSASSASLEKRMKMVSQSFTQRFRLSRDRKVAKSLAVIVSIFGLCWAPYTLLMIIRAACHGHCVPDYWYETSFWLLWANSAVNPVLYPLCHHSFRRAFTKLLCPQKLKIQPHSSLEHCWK", "assay": "Millipore Drug Discovery Safety and Liability Panel", "assay_type": "cell-based"}, "Nav1.5": {"biological_target": "Nav1.5 (Homo sapiens, UniProt Q14524)", "assay": "Cardiac ion channel profile", "assay_type": "cell-based"}, "VPAC2": {"biological_target": "T8, VPAC2 (Homo sapiens, UniProt P41587)", "T8 construct": "Millipore", "T8 sequence (P41587 24-438)": "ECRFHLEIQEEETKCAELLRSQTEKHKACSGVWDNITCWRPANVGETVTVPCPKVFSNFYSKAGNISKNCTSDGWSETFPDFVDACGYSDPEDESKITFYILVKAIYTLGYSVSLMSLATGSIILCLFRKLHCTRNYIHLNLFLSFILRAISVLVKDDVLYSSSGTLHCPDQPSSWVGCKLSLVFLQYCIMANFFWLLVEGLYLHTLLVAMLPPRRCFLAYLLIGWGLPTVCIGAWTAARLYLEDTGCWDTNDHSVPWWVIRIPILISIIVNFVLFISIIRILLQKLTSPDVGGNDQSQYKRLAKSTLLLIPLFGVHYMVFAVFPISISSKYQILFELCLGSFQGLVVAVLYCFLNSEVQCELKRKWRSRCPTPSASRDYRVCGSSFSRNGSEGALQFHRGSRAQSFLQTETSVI", "assay": "Millipore Drug Discovery Safety and Liability Panel", "assay_type": "cell-based"}, "minK (Homo sapiens)": {"system": "minK (Homo sapiens)", "assay": "Cardiac ion channel profile", "assay_type": "cell-based"}, "p42/p44 (MAPK pathway)": {"system": "p42/p44 (MAPK pathway)", "assay": "p42/p44 phosphorylation in primary lung endothelial cells (selectivity control)", "assay_type": "cell-based, mouse", "details": "control for selectivity", "procedure": "ECs were seeded in six-well plates and allowed to grow to 90% confluence. Cells were then washed with PBS and serum starved for six hours. […] Cells were washed with cold PBS and then lysed in RIPA Buffer (50 mM Tris-HCl pH 7.4, 150 mM NaCl, 1 mM Ethylene diamine tetra-acetic acid (EDTA), 1% Triton X-100, 0.1% Sodium Dodecyl Sulfate (SDS), 0.5% deoxycholate) containing protease and phosphatase inhibitors (PPC1010, Sigma-Aldrich).\nSamples were boiled for 10 min and proteins were separated on 10% acrylamide gel and transferred onto nitrocellulose membrane before blocking with 5% BSA or 5% powdered milk/Tris-buffered saline/Tween and incubated with the following primary antibodies: rabbit anti-Phospho-Akt1 (Ser473) (44-621G, Invitrogen), rabbit anti-Akt1 (2938S, Cell Signaling), rabbit anti-PhosphoSmad1/5 (Ser463/465) (9516S, Cell Signaling), rabbit anti-Smad1 (6944S, Cell Signaling), mouse anti-Phospho-p44/42 MAPK (Thr202/Tyr204) (E10) (9106S, Cell signaling), rabbit p44/42 MAPK (Erk1/2) (9102S, Cell Signaling), goat anti-Endoglin (AF1097, R&D systems) and mouse anti-β-actin (A5441, Sigma-Aldrich). Detection was achieved using HRP anti-rabbit IgG or HRP anti-mouse IgG (W4011 or W4021 respectively, Promega) or HRP anti-goat IgG (HAF017, R&D systems) followed by scanning on BIO-RAD ChemiDoc imager. […]"}, "5-HT1A": {"biological_target": "T9, 5-HT1A (Homo sapiens, UniProt P08908)", "T9 construct": "purchased Millipore", "assay": "Millipore Drug Discovery Safety and Liability Panel", "assay_type": "cell-based"}, "Kv4.3": {"biological_target": "Kv4.3 (Homo sapiens, UniProt Q9UK17)", "assay": "Cardiac ion channel profile", "assay_type": "cell-based"}, "CysLT1": {"biological_target": "T10, CysLT1 (Homo sapiens, UniProt Q9Y271)", "T10 construct": "purchased Millipore", "T10 sequence (Q9Y271 whole entry)": "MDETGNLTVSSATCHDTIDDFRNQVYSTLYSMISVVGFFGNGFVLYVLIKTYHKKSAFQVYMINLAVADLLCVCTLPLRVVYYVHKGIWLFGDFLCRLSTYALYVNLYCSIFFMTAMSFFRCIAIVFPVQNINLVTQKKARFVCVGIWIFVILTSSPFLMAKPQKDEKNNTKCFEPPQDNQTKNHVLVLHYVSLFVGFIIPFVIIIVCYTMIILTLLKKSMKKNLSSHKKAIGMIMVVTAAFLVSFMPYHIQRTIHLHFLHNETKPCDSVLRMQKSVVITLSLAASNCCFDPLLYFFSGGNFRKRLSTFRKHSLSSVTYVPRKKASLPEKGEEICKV", "assay": "Millipore Drug Discovery Safety and Liability Panel", "assay_type": "cell-based"}, "AKT3": {"biological_target": "AKT3 (Homo sapiens, UniProt Q9Y243)", "sequence (Q9Y243 whole entry)": "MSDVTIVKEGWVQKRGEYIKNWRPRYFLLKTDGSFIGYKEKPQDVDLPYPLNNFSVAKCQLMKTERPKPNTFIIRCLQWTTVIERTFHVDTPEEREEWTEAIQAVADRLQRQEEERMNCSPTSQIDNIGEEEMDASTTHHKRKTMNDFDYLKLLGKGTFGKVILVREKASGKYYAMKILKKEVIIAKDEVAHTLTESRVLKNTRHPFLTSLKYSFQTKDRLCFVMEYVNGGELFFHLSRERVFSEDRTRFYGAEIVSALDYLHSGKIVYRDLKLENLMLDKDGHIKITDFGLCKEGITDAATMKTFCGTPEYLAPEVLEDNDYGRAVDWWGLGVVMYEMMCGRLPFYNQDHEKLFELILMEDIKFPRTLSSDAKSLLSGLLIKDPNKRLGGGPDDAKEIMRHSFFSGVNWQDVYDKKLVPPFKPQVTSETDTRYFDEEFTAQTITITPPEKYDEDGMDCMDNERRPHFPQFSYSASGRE", "assay": "Biochemical kinase assay"}, "CXCR1": {"biological_target": "T11, CXCR1 (Homo sapiens, UniProt P25024)", "T11 construct": "purchased Millipore", "T11 sequence (P25024 whole entry)": "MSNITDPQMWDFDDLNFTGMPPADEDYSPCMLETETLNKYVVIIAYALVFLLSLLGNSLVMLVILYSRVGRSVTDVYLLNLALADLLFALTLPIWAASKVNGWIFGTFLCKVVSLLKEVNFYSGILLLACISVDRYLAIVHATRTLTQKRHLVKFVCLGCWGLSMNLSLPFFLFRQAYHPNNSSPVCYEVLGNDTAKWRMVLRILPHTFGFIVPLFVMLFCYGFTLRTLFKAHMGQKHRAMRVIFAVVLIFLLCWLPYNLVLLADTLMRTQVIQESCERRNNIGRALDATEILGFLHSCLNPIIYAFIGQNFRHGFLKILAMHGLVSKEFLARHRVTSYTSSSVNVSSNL", "assay": "Millipore Drug Discovery Safety and Liability Panel", "assay_type": "cell-based"}, "CRF1": {"biological_target": "T12, CRF1 (Homo sapiens, UniProt P34998)", "T12 construct": "purchased Millipore", "assay": "Millipore Drug Discovery Safety and Liability Panel", "assay_type": "cell-based"}, "ADRA1A": {"biological_target": "T13, ADRA1A (Homo sapiens, UniProt P35348)", "T13 construct": "purchased Millipore", "T13 sequence (P35348 whole entry)": "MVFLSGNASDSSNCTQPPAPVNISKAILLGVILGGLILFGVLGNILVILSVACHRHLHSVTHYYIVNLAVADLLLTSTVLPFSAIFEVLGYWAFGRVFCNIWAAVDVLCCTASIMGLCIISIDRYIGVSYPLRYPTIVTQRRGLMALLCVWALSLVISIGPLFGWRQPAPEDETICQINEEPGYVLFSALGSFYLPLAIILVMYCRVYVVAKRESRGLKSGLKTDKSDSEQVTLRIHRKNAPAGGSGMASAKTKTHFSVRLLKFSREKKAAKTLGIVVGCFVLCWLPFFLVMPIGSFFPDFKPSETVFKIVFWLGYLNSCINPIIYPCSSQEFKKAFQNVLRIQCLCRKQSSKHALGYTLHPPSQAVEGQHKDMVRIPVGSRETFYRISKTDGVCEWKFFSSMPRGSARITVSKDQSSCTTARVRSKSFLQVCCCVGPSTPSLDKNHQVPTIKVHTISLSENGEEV", "assay": "Millipore Drug Discovery Safety and Liability Panel", "assay_type": "cell-based"}, "Motilin": {"biological_target": "T14, Motilin (Homo sapiens, UniProt O43193)", "T14 construct": "purchased Millipore", "assay": "Millipore Drug Discovery Safety and Liability Panel", "assay_type": "cell-based"}, "IP1": {"biological_target": "T15, IP1 (Homo sapiens, UniProt P43119)", "T15 construct": "purchased Millipore", "T15 sequence (P43119 whole entry)": "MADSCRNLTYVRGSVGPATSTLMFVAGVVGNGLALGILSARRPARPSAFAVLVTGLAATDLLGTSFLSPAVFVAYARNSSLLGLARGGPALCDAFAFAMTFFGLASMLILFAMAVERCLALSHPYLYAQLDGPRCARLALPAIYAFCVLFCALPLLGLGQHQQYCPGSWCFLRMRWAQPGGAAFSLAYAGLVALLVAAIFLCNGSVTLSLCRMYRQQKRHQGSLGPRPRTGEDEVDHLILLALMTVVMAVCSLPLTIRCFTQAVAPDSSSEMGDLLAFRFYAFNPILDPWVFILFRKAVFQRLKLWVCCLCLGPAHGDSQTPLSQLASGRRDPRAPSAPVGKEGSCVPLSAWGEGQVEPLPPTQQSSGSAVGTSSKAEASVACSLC", "assay": "Millipore Drug Discovery Safety and Liability Panel", "assay_type": "cell-based"}, "M2": {"biological_target": "T16, M2 (Homo sapiens, UniProt P08172)", "T16 construct": "purchased Millipore", "assay": "Millipore Drug Discovery Safety and Liability Panel", "assay_type": "cell-based"}, "OPRM1": {"biological_target": "T17, OPRM1 (Homo sapiens, UniProt P35372)", "T17 construct": "Millipore", "T17 sequence (P35372 whole entry, species assumed)": "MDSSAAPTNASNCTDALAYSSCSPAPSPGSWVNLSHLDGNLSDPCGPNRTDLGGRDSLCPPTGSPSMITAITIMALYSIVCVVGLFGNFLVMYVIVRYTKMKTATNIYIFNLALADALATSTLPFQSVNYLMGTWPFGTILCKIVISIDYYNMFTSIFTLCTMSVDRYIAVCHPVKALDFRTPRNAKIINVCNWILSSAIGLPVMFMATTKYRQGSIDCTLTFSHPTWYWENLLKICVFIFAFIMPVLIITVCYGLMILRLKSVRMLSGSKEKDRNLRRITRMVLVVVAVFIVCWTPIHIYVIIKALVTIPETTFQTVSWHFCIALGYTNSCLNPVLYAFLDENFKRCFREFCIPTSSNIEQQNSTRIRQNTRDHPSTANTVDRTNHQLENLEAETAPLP", "assay": "Millipore Drug Discovery Safety and Liability Panel", "assay_type": "cell-based"}, "[1]": {"details": "read-out: ANTAGONIST mean % inhibition"}, "[2]": {"details": "read-out: AGONIST mean % increase in activity"}}, "data": [{"smiles": "CCN1C(=O)COc2nc(-c3ccc(C4(N)CC(O)C4)cc3)c(-c3ccccc3)cc21.O=C(O)C(O)C(O)C(=O)O", "note": "[VAD044, 6-(4-(1-amino-3-hydroxycyclobutyl)phenyl)-1-ethyl-7-phenyl-1H-pyrido[2,3-b][1,4]oxazin-2(3H)-one L-tartrate]", "values": [{"measurement": "activation at 10 µM", "setting": "ETA; ETA, 10 μM, read-out: AGONIST mean % increase in activity", "result": -0.4, "unit": "%"}, {"measurement": "inhibition at 10 µM", "setting": "ETA; [1]", "result": 10.5, "unit": "%"}, {"measurement": "activation at 10 µM", "setting": "NK1; NK1, 10 μM, read-out: AGONIST mean % increase in activity", "result": -1.4, "unit": "%"}, {"measurement": "inhibition at 10 µM", "setting": "NK1; [1]", "result": 2.4, "unit": "%"}, {"measurement": "activation at 10 µM", "setting": "H2; H2, 10 μM, read-out: AGONIST mean % increase in activity", "result": -0.2, "unit": "%"}, {"measurement": "inhibition at 10 µM", "setting": "H2; [1]", "result": -1.8, "unit": "%"}, {"measurement": "activation at 10 µM", "setting": "PTH1; PTH1, 10 μM, read-out: AGONIST mean % increase in activity", "result": -1.1, "unit": "%"}, {"measurement": "inhibition at 10 µM", "setting": "PTH1; [1]", "result": -2.5, "unit": "%"}, {"measurement": "activation at 10 µM", "setting": "M1; M1, 10 μM, read-out: AGONIST mean % increase in activity", "result": -0.7, "unit": "%"}, {"measurement": "inhibition at 10 µM", "setting": "M1; [1]", "result": -3.4, "unit": "%"}, {"measurement": "inhibition at 10 µM", "setting": "PDK1; 10 μM", "result": 77, "unit": "%"}, {"measurement": "IC50", "setting": "PDK1; 10-point titration curve", "result": "> 10000", "unit": "nM"}, {"measurement": "activation at 10 µM", "setting": "SST4; SST4, 10 μM, read-out: AGONIST mean % increase in activity", "result": -0.8, "unit": "%"}, {"measurement": "inhibition at 10 µM", "setting": "SST4; [1]", "result": 16.5, "unit": "%"}, {"measurement": "activation at 10 µM", "setting": "H3; H3, 10 μM, read-out: AGONIST mean % increase in activity", "result": -0.6, "unit": "%"}, {"measurement": "inhibition at 10 µM", "setting": "H3; [1]", "result": 3.5, "unit": "%"}, {"measurement": "inhibition at 10 µM", "setting": "Nav1.5", "result": "< 25", "unit": "%"}, {"measurement": "activation at 10 µM", "setting": "VPAC2; VPAC2, 10 μM, read-out: AGONIST mean % increase in activity", "result": 0, "unit": "%"}, {"measurement": "inhibition at 10 µM", "setting": "VPAC2; [1]", "result": 6.2, "unit": "%"}, {"measurement": "inhibition at 10 µM", "setting": "minK (Homo sapiens)", "result": "< 25", "unit": "%"}, {"measurement": "impact on the MAPK pathway (p42/p44 phosphorylation)", "setting": "p42/p44 (MAPK pathway)", "result": "no impact on the MAPK pathway"}, {"measurement": "activation at 10 µM", "setting": "5-HT1A; [2]", "result": 2.1, "unit": "%"}, {"measurement": "inhibition at 10 µM", "setting": "5-HT1A; [1]", "result": 30.6, "unit": "%"}, {"measurement": "inhibition at 10 µM", "setting": "Kv4.3", "result": "< 25", "unit": "%"}, {"measurement": "activation at 10 µM", "setting": "CysLT1; CysLT1, 10 μM, read-out: AGONIST mean % increase in activity", "result": -0.8, "unit": "%"}, {"measurement": "inhibition at 10 µM", "setting": "CysLT1; [1]", "result": 1.5, "unit": "%"}, {"measurement": "IC50", "setting": "AKT3", "result": "> 500", "unit": "nM"}, {"measurement": "EC50", "setting": "AKT3; read-out: EC50 value for the AKT3 isoform", "result": "> 500", "unit": "nM"}, {"measurement": "activation at 10 µM", "setting": "CXCR1; CXCR1, 10 μM, read-out: AGONIST mean % increase in activity", "result": -0.3, "unit": "%"}, {"measurement": "inhibition at 10 µM", "setting": "CXCR1; [1]", "result": 3.7, "unit": "%"}, {"measurement": "activation at 10 µM", "setting": "CRF1; CRF1, 10 μM, read-out: AGONIST mean % increase in activity", "result": 0, "unit": "%"}, {"measurement": "inhibition at 10 µM", "setting": "CRF1; [1]", "result": 2.3, "unit": "%"}, {"measurement": "activation at 10 µM", "setting": "ADRA1A; ADRA1A, 10 μM, read-out: AGONIST mean % increase in activity", "result": -0.7, "unit": "%"}, {"measurement": "inhibition at 10 µM", "setting": "ADRA1A; [1]", "result": 9.9, "unit": "%"}, {"measurement": "activation at 10 µM", "setting": "Motilin; [2]", "result": -0.3, "unit": "%"}, {"measurement": "inhibition at 10 µM", "setting": "Motilin; [1]", "result": 50, "unit": "%"}, {"measurement": "activation at 10 µM", "setting": "IP1; IP1, 10 μM, read-out: AGONIST mean % increase in activity", "result": 1.1, "unit": "%"}, {"measurement": "inhibition at 10 µM", "setting": "IP1; [1]", "result": -2.6, "unit": "%"}, {"measurement": "activation at 10 µM", "setting": "M2; [2]", "result": 0, "unit": "%"}, {"measurement": "inhibition at 10 µM", "setting": "M2; [1]", "result": 20.6, "unit": "%"}, {"measurement": "inhibition at 10 µM", "setting": "OPRM1; OPRM1, read-out: ANTAGONIST mean % inhibition", "result": 2.4, "unit": "%"}, {"measurement": "activation at 10 µM", "setting": "OPRM1; OPRM1, 10 μM, read-out: AGONIST mean % increase in activity", "result": -2, "unit": "%"}]}]}
